Where no end group is shown, it is not given here.
Tests used:
CRHR2 alpha = target: T1, CRHR2 alpha (Homo sapiens, UniProt Q13324); assay: HTRF cAMP assay in HEK-TREX-CRHR2 alpha cells, with or without UCN2 pre-treatment; type: cell-based; conditions: n = 3
T1 construct: host or cells: HEK-TREX-CRHR2 alpha cells, non-induced
T1 sequence (Q13324 1-411): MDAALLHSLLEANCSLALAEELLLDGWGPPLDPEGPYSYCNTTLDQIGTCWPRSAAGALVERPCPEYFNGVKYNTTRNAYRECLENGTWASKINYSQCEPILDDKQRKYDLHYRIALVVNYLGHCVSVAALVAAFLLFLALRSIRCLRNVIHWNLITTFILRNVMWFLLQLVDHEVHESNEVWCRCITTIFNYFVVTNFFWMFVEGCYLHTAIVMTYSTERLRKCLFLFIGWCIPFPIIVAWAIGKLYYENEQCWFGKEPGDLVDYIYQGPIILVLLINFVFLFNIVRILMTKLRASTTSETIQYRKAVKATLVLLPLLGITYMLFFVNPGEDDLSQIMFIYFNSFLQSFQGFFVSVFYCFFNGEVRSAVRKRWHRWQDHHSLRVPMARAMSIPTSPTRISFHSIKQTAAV
Protocol: To determine whether CRHR2 functional desensitization in response to UCN2 occurred tissue-autonomously, we turned to CRHR2-transfected HEK 293 cells.
To measure cell-based CRHR2 agonist activity a HTRF (Homogenous Time-Resolved Fluorescence) cAMP detection kit (Cisbio cAMP dynamic 2 assay kit) was performed in non-induced HEK-TREX-CRHR2 alpha cells (Fisher Scientific). Cells were plated one day before the assay in 384-well plates at 1500 cells/well and assayed in adherent mode by removing the media, patting on paper towel and adding 10 µl of 1 µM of UCN2 or vehicle control for 1 h. Cells were gently washed 3 times with wash buffer and rested for 6 h in incubator. Following rest, cells were restimulated with titrating concentrations of UCN2 with IBMX, at a final concentration of 250 µM. Reactions continued for 30 min at 37 °C followed by addition of detection reagents and a one-hour minimum incubation at room temperature. HTRF, a competitive immunoassay, produces a fluorescence signal read with an Envision multi-plate reader using an excitation of 330 nm and emissions of 615 and 665 nm. By interpolation from a cAMP standard curve, raw data were converted to nm cAMP and then expressed as percent effect of 1 µM UCN2 in vehicle control pretreatment conditions.

human CRHR2a (Gs) = target: T2, human CRHR2a (Gs) (Homo sapiens, UniProt Q13324); assay: ebBRET effector membrane translocation assay (EMTA), Gs biosensor; type: cell-based; conditions: comparison of concentration response curves; Gs at lower concentration
T2 construct: expressed in transfected cells; host or cells: HEK293 cells (Millipore Sigma), transient PEI co-transfection with biosensor plasmids at Domain Therapeutics
T2 sequence (Q13324 1-411): T1 sequence (Q13324 1-411)
Protocol: Typically, GPCR desensitization is carried out through the recruitment of β-Arrestins or alternative G-proteins to the receptor. To identify whether these proteins are recruited to CRHR2 in response to UCN2, enhanced bystander bioluminescence resonance energy transfer (ebBRET)-based effector membrane translocation assays (EMTA) were carried out in HEK293 cells[28],[29]. Cells were co-transfected with plasmids expressing unmodified CRHR2a (alpha isoform) and one of various pathway-specific biosensors. […]
Effector membrane translocation biosensor assays (bioSensAll®) were conducted at Domain Therapeutics NA Inc. (Montreal, QC, Canada) and described in cells[28],[29]. […] Briefly, DNA and PEI were diluted separately in 150 mM NaCl, mixed and then incubated for at least 20 min at room temperature (note: salmon sperm DNA (Invitrogen) was used to adjust the total amount of DNA transfected to a final quantity of 1 ug per mL of cell culture to be transfected). During the 20-minute incubation, HEK293 cells were detached, counted and resuspended into cell culture medium to a final density of 350,000 cells per mL. […] Cells were then incubated at room temperature for 10 min and BRET readings subsequently collected with a 0.4 s integration time on a Synergy NEO plate reader (BioTek Instruments, Inc., USA; filters: 400 nm/70 nm, 515 nm/20 nm). […]

In the case of “IVLSLDVPIGLLQILLEQARARAAREQATTNARILARVGHC-NH2 (C-terminus assumed) [UCN2, Urocortin 2]”, the “cAMP response to subsequent UCN2 after UCN2 pre-treatment” value (CRHR2 alpha; 1 µM UCN2 for 1 h, wash, 6 h rest, restimulation) was “significantly blunts the cAMP activation response”, the “cAMP response to increasing concentrations” value (CRHR2 alpha; CRHR2-transfected HEK 293 cells, 30 min at 37 °C, IBMX 250 µM) was “increases in a dose-dependent manner” and the “UCN2 concentration for Gs activation versus engagement of Gi and β-Arrestin” value (human CRHR2a (Gs)) was “more than 10 fold”.

Reference: publication PMC10319809, “Chronic UCN2 treatment desensitizes CRHR2 and improves insulin sensitivity” (Nature Communications, 2023)
